Tests used:
Assay in all cases: differential drug sensitivity score (dDSS) relative to sarcoma reference cohort mean DSS (DSS units (0-100 scale difference)); higher = more selective sensitivity than reference sarcomas
Details in all cases: exposure time: 72 h; concentration range: 10-10000 nM
ES-ZH001 = tested on: ES-ZH001 (patient-derived Ewing sarcoma tumoroid)
Method: (§1)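 Drug response profiling of patient-derived Ewing sarcoma and CIC::DUX4 sarcoma tumoroid models (or cells tested directly after isolation from the tumor, 'direct'). The DSS is the normalised AUC (0-100); dDSS is the sample DSS minus the mean DSS of a 34-sarcoma reference cohort profiled in the same lab.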

ES-ZH004 = tested on: ES-ZH004 (patient-derived Ewing sarcoma tumoroid)
Method: as §1

ES-ZH016 direct = tested on: ES-ZH016 direct (Ewing sarcoma cells right after isolation)
Method: as §1

ES-ZH008 = tested on: ES-ZH008 (patient-derived Ewing sarcoma tumoroid)
Method: as §1

ES-ZH009 = tested on: ES-ZH009 (patient-derived Ewing sarcoma tumoroid)
Method: as §1

CDS-ZH001 = tested on: CDS-ZH001 (patient-derived CIC-DUX4 sarcoma tumoroid)
Method: as §1

CDS-ZH002 direct = tested on: CDS-ZH002 direct (CIC-DUX4 sarcoma cells right after isolation)
Method: as §1

CDS-ZH002 = tested on: CDS-ZH002 (patient-derived CIC-DUX4 sarcoma tumoroid)
Method: as §1

ES-ZH002 = tested on: ES-ZH002 (patient-derived Ewing sarcoma tumoroid)
Method: as §1

ES-ZH016 = tested on: ES-ZH016 (patient-derived Ewing sarcoma tumoroid)
Method: as §1

ES-ZH007 = tested on: ES-ZH007 (patient-derived Ewing sarcoma tumoroid)
Method: as §1

CDS-ZH003 = tested on: CDS-ZH003 (patient-derived CIC-DUX4 sarcoma tumoroid)
Method: as §1

CDS-ZH001-2 = tested on: CDS-ZH001-2 (patient-derived CIC-DUX4 sarcoma tumoroid)
Method: as §1

Structure (SMILES)	differential drug sensitivity score (ES-ZH001)	differential drug sensitivity score (ES-ZH004)	differential drug sensitivity score (ES-ZH016 direct)	differential drug sensitivity score (ES-ZH008)	differential drug sensitivity score (ES-ZH009)	differential drug sensitivity score (CDS-ZH001)	differential drug sensitivity score (CDS-ZH002 direct)	differential drug sensitivity score (CDS-ZH002)	differential drug sensitivity score (ES-ZH002)	differential drug sensitivity score (ES-ZH016)	differential drug sensitivity score (ES-ZH007)	differential drug sensitivity score (CDS-ZH003)	differential drug sensitivity score (CDS-ZH001-2)
CCC(=O)N1CCN(c2ccc(-n3c(=O)ccc4cnc5ccc(-c6cnc7ccccc7c6)cc5c43)cc2C(F)(F)F)CC1 [Torin-1]	-3.5	-2.7	-6.9	0.8	6.3	4.9	-8.4	-4	6.9	-1.2	-0.5	4.4	1.9
Fc1cc(-c2cccc3ncc(-c4cnn(C5CCNCC5)c4)nc23)cc(F)c1CN1CCOCC1 [BSK805]	-0.1	1.4	3	2.9	1.7	2.5	0.1	-2.6	3.2	2.5	2.8	2.6	1.9
O=C(Nc1cnn2ccc(N3CCC[C@@H]3c3cc(F)ccc3F)nc12)N1CC[C@H](O)C1 [Larotrectinib]	-0.9	-0.8	-0.9	-0.9	-0.9	1.2	-0.9	-0.9	-0.9	-0.9	-0.9	8.8	-0.9
COc1cc(Nc2c(C#N)cnc3cc(OCCCN4CCN(C)CC4)c(OC)cc23)c(Cl)cc1Cl [Bosutinib]	-0.5	-0.5	0.2	-0.5	0.5	0.6	-0.5	0.1	-0.5	1.1	-0.5	-0.4	1.8
O=C(NOC[C@H](O)CO)c1ccc(F)c(F)c1Nc1ccc(I)cc1F [Mirdametinib]	-3	-3	-3	-1.9	-3	-3	-2.9	-3	-3	-3	-3	-3	-3
O=C(O)CNC(=O)c1c(O)c2ccccc2n(Cc2ccccc2)c1=O [IOX2]	3.2	0.7	-1.5	3.7	-1.5	-1.5	1	-1.3	5.1	-1.5	-0.7	3.7	-1.5
CC(C)NCCCn1c(Sc2cc3c(cc2I)OCO3)nc2c(N)ncnc21 [Zelavespib]	0.8	-2.1	2.3	5.8	7.3	0.5	-1.1	-7.7	3.4	-0.6	0.4	4.4	3.1
CC(C)c1cc(C(=O)N2Cc3ccc(CN4CCN(C)CC4)cc3C2)c(O)cc1O [Onalespib]	3.6	-1.2	6.1	7.7	4.9	-3.5	-2.7	-6.3	9.5	-3.1	-3	-1.5	0.4
NC(=O)Nc1cc(-c2cccc(F)c2)sc1C(=O)N[C@H]1CCCNC1 [AZD7762]	7.4	-2.9	10.6	8.1	8.8	6.3	-1	-0.5	7.1	4.7	8.8	-3.8	0
CCc1c2c(nc3ccc(O)cc13)-c1cc3c(c(=O)n1C2)COC(=O)[C@]3(O)CC [SN-38]	13.2	14.9	4.9	8.8	15.7	7	-0.9	-1	15.3	16.4	17.1	-1.4	5.2
Cn1nccc1Nc1nccc(-c2ccn([C@H](CO)c3ccc(Cl)c(F)c3)c(=O)c2)n1 [Ravoxertinib]	-5	-5	-5	-5	1.2	-5	-2.3	-5	-0.4	-2	-0.3	-5	-3.7
CCc1ccc(/C=C2/SC(=S)NC2=O)cc1	-2.1	-2.1	4	-1.6	3.1	3.2	-2.1	2.3	1.2	5.6	-1.2	-1.6	1
Cc1ccc2nc(NCCN)c3ncc(C)n3c2c1	1.4	-2.3	0.5	-1.3	1.8	3	2.2	1	3.8	3.7	1.4	-1.9	4.2
O=C(Nc1c[nH]nc1-c1nc2ccc(CN3CCOCC3)cc2[nH]1)NC1CC1 [AT9283]	24.4	4	14.2	18.4	24.5	-1.2	-0.7	-3.6	10.8	10.8	6.1	-2	7
C[C@]12C=CC(=O)C=C1CC[C@@H]1[C@@H]2C(=O)C[C@@]2(C)[C@H]1CC[C@]2(O)C(=O)CO [Prednisone]	-0.5	-0.5	-0.5	-0.5	-0.5	-0.5	-0.5	-0.5	-0.5	-0.5	-0.5	-0.5	-0.5
Nc1cccc2c1C(=O)N(C1CCC(=O)NC1=O)C2=O (stereo not drawn) [Pomalidomide]	-1.1	0.4	-1.2	3	-1.3	-0.6	-1.4	-1.4	6.4	-1.4	-1.2	-1.3	-1.4

Structure (SMILES)	differential drug sensitivity score (ES-ZH001)	differential drug sensitivity score (ES-ZH004)	differential drug sensitivity score (ES-ZH016 direct)	differential drug sensitivity score (ES-ZH008)	differential drug sensitivity score (ES-ZH009)	differential drug sensitivity score (CDS-ZH001)	differential drug sensitivity score (CDS-ZH002 direct)	differential drug sensitivity score (CDS-ZH002)	differential drug sensitivity score (ES-ZH002)	differential drug sensitivity score (ES-ZH016)	differential drug sensitivity score (ES-ZH007)	differential drug sensitivity score (CDS-ZH003)	differential drug sensitivity score (CDS-ZH001-2)
O=C(NCCCNc1nc(Nc2cccc(NC(=O)N3CCCC3)c2)ncc1I)c1cccs1 [BX-795]	3.7	-3.5	5.1	-2.2	1.1	-4.1	-2.6	-1.9	2.2	2.6	0	5.5	-2.6
Cc1cn(-c2cc(NC(=O)c3ccc(C)c(Nc4nccc(-c5cccnc5)n4)c3)cc(C(F)(F)F)c2)cn1 [Nilotinib]	0.5	1.6	-0.7	-0.6	-0.4	0.6	-0.7	-0.7	4.1	-0.7	-0.3	-0.7	-0.7
CCN1CCN(c2ccc(Nc3cc(N(C)C(=O)Nc4c(Cl)c(OC)cc(OC)c4Cl)ncn3)cc2)CC1 [Infigratinib]	-4	-3.9	1.6	-6.1	-0.1	-1.9	2.3	-6.1	2	-4	-3.2	-1.3	-1.1
Cc1nc(Nc2ncc(C(=O)Nc3c(C)cccc3Cl)s2)cc(N2CCN(CCO)CC2)n1 [Dasatinib]	-4.5	-3.6	9.3	-7.5	-7	-11.9	8.9	-3.2	2.2	-10.8	-6.8	-9.6	-4.6
N[C@@H]1CCCN(c2c(/C=C3\SC(=O)NC3=O)cccc2-c2ccccc2)C1 [AZD1208]	-0.4	-0.8	-2.9	1.8	3.6	8.2	1.1	1.2	0	-2.9	-2.9	13.6	2
C#Cc1cccc(Nc2ncnc3cc(OCCOC)c(OCCOC)cc23)c1 [Erlotinib]	-1.1	-1.1	-1.1	-1.1	-1.1	-1.1	-1.1	-1.1	-1.1	-1.1	-1.1	-1.1	-1.1
Cn1nnc2c(C(N)=O)ncn2c1=O [Temozolomide]	3.2	-1.7	14.8	-1.3	7	3.6	1.1	1.4	2.1	13.8	-1.3	7.1	3.5
CCNC(=O)c1noc(-c2cc(C(C)C)c(O)cc2O)c1-c1ccc(CN2CCOCC2)cc1 [Luminespib]	3.5	1.2	8.1	7.8	6.6	4.1	-3.8	-9.4	10.5	2.2	3.7	2.7	2.1
Cn1cc(-c2cnn3c(N)c(Br)c([C@@H]4CCCNC4)nc23)cn1 [MK-8776]	4.7	-2.9	6.3	8.5	6.8	4.4	1.1	-1.5	8.9	-1.8	1.8	-6.8	7.1
Nc1cc(C(F)(F)F)c(-c2cc(N3CCOCC3)nc(N3CCOCC3)n2)cn1 [Buparlisib]	1.5	-2.2	0.6	4.6	2.5	3.3	-2.5	-2.2	7.6	-0.6	-0.1	6.9	2.9
Cn1cc(C2=C(c3ccc(Cl)cc3Cl)C(=O)NC2=O)c2ccccc21	6.9	2.1	0.4	3.8	-1.5	-1.5	-1.5	-1.5	5.1	-1.5	0.1	-6.5	-1.5
CS(=O)(=O)c1ccc(C(=O)Nc2ccc(Cl)c(-c3ccccn3)c2)c(Cl)c1 [Vismodegib]	4.7	5.2	-2.7	2.8	-2.6	-2.7	1.1	-2.4	7.1	1.4	0.4	-6.9	-2.6
CCn1cc(-c2cccc(C(F)(F)F)c2)c2sc(C(=N)NC3CCS(=O)(=O)CC3)cc2c1=O [I-BRD9]	-1.6	-2.8	9.8	-2.8	2.6	2.7	-2.6	-1	-1.8	-1.6	-1.8	8.4	3.3
O=[P@]1(N(CCCl)CCCl)N[C@H](OO)CCO1 [Hydroperoxycyclophosphamide]	1.7	6.4	4.6	6.5	-1	-0.7	-3.6	-3.6	7.7	2.2	0.2	-4.1	-2.3
O=C(NCC1CCOCC1)c1cnc(Nc2ccc(Cl)cc2Cl)nc1C(F)(F)F	-0.5	-0.5	-0.5	-0.5	-0.5	-0.5	-0.5	-0.5	-0.5	-0.5	-0.5	-0.5	-0.5
